≈ marks a conversion by molar mass, not a printed value. Calls of active or inactive are those of the source. No cut-off for these calls is given here.
How the values were obtained:
[1] = Clearance in Beagle dog at 1 mg/kg, iv or 10 mg/kg, po; type: ADME, organism-based, Canis lupus familiaris; settings: in vivo
[2] = Protein binding in plasma of Beagle dog assessed as unbound fraction at […] by ultracentrifugation; type: ADME, cell-free, Canis lupus familiaris
MIA PaCa-2 [3] = assay: Antitumor activity against human MIAPaCa2 cells harboring KRAS G12C point mutant xenografted in athymic nude mouse assessed as tumor growth inhibition at 10 mg/kg, po qd measured after 26 days relative to control; type: functional
[4] = Protein binding in plasma of BALB/c mouse assessed as unbound fraction at […] by ultracentrifugation; type: ADME
[5] = Volume of distribution at steady state in Beagle dog at 1 mg/kg, iv or 10 mg/kg, po; type: ADME, organism-based, Canis lupus familiaris; settings: in vivo, read-out: Vdss
[6] = Tmin in plasma of athymic nude mouse xenografted with human MIAPaCa2 cells at > 10 mg/kg, po administered as single dose; type: ADME, organism-based; settings: in vivo
[7] = Volume of distribution at steady state in Sprague-Dawley rat at 1 mg/kg, iv or 10 mg/kg, po; type: ADME, organism-based; settings: in vivo, read-out: Vdss
Mus musculus = assay: Decrease in ERK1/ERK2 phosphorylation in human MIAPaCa2 cells xenografted in athymic nude mouse at > 10 mg/kg, po administered as single dose measured after 60 to 120 mins post-treatment; type: functional, organism-based
[8] = Permeability of compound across apical to basolateral membrane in MDCK2 cells at 10 to 50 uM incubated for 2 hrs under shaking condition by LC-MS/MS analysis; type: ADME, cell-based, Canis lupus familiaris, MDCK-II; settings: dog, MDCK; read-out: permeability
[9] = Half life in Sprague-Dawley rat at 1 mg/kg, iv or 10 mg/kg, po; type: ADME, organism-based; settings: in vivo
MIA PaCa-2 [10] = assay: Antitumor activity against human MIAPaCa2 cells harboring KRAS G12C point mutant xenografted in athymic nude mouse assessed as tumor regression at 100 mg/kg, po qd measured after 26 days relative to control; type: functional
MIA PaCa-2 [11] = assay: Antiproliferative activity against human MIAPaCa2 cells harboring KRAS G12C point mutant assessed as cell growth inhibition after 72 hrs by Celltiter-Glo luminescent cell viability assay; type: functional, cell-based; settings: MIA PaCa-2, 72 h
[12] = Half life in BALB/c mouse at 1 mg/kg, iv or 10 mg/kg, po; type: ADME, organism-based; settings: in vivo
[13] = Clearance in BALB/c mouse at 1 mg/kg, iv or 10 mg/kg, po; type: ADME, organism-based; settings: in vivo
A549 = assay: Antiproliferative activity against human A549 cells harboring KRAS G12S point mutant assessed as cell growth inhibition after 72 hrs by Celltiter-Glo luminescent cell viability assay; type: functional, cell-based; settings: A549, 72 h
[14] = Protein binding in plasma of Sprague-Dawley rat assessed as unbound fraction at […] by ultracentrifugation; type: ADME, cell-free
[15] = Oral bioavailability in Beagle dog at 10 mg/kg; type: ADME, organism-based, Canis lupus familiaris; settings: in vivo
[16] = Clearance in Sprague-Dawley rat at 1 mg/kg, iv or 10 mg/kg, po; type: ADME, organism-based; settings: in vivo
[17] = Volume of distribution at steady state in BALB/c mouse at 1 mg/kg, iv or 10 mg/kg, po; type: ADME, organism-based; settings: in vivo, read-out: Vdss
[18] = Oral bioavailability in Sprague-Dawley rat at 10 mg/kg; type: ADME, organism-based; settings: in vivo
[19] = Solubility of compound in 0.01N HCl at pH 2 incubated for 48 to 72 hrs under shaking conditions by LCMS analysis; type: physicochemical
[20] = Half life in Beagle dog at 1 mg/kg, iv or 10 mg/kg, po; type: ADME, organism-based, Canis lupus familiaris; settings: in vivo
[21] = Oral bioavailability in BALB/c mouse at 10 mg/kg; type: ADME, organism-based; settings: in vivo
[22] = Solubility of compound in PBS buffer at pH 7.4 incubated for 48 to 72 hrs under shaking conditions by LCMS analysis; type: physicochemical
[23] = Solubility of compound in FaSSIF incubated for 48 to 72 hrs under shaking conditions by LCMS analysis; type: physicochemical
[24] = Half life of compound in aqueous phosphate buffer at pH 7.4 and at 37 degree C in presence of 5 mM GSH; type: physicochemical; settings: aqueous phosphate buffer with 5 mM GSH
[25] = Time taken to achieve Cmax in tumor of athymic nude mouse xenografted with human MIAPaCa2 cells at > 10 mg/kg, po administered as single dose; type: ADME, organism-based, Neoplasm; settings: read-out: tCmax (converted)
[26] = Intrinsic clearance in human cryopreserved hepatocytes assessed per 10^6 cells at 0.5 uM measured upto 60 mins by LCMS analysis; type: ADME, cell-based, Hepatocyte; settings: read-out: CLH
[27] = Protein binding in plasma of human assessed as unbound fraction at […] by ultracentrifugation; type: ADME, cell-free
MIA PaCa-2 [28] = assay: Antitumor activity against human MIAPaCa2 cells harboring KRAS G12C point mutant xenografted in athymic nude mouse assessed as tumor regression at 30 mg/kg, po qd measured after 26 days relative to control; type: functional
[29] = Intrinsic clearance in mouse cryopreserved hepatocytes assessed per 10^6 cells at 0.5 uM measured upto 60 mins by LCMS analysis; type: ADME, cell-based, Hepatocyte; settings: read-out: CLH
MIA PaCa-2 [30] = assay: Antitumor activity against human MIAPaCa2 cells harboring KRAS G12C point mutant xenografted in athymic nude mouse assessed as tumor regression at >= 30 mg/kg, po qd measured after 26 days; type: functional, organism-based
[31] = Time taken to achieve Cmax in plasma of athymic nude mouse xenografted with human MIAPaCa2 cells at > 10 mg/kg, po administered as single dose; type: ADME, organism-based; settings: read-out: tCmax (converted)
[32] = Unbound plasma concentration in athymic nude mouse xenografted with human MIAPaCa2 cells at 10 mg/kg, po qd after 8 hrs post-last dose; type: ADME, organism-based; settings: in vivo

clearance [1]: 36.7 mL/min/kg | fraction unbound at […] [2]: 0.17 | fraction unbound at […] [4]: 0.06 | Vd [5]: 0.73 L/kg | Tmin [6]: 120 min | Vd [7]: 2 L/kg | Papp A→B at 2 h, up to 50 µM [8]: 6 ×10⁻⁶ cm/s | half-life [9]: 30 min | IC50 (MIA PaCa-2 [11]): 0.005 µM | half-life [12]: 30 min | clearance [13]: 26.7 mL/min/kg | IC50 (A549): 36.5 µM | fraction unbound at […] [14]: 0.05 | bioavailability [15]: 0.34% | clearance [16]: 56.7 mL/min/kg | Vd [17]: 0.7 L/kg | bioavailability [18]: 2.8% | solubility thermodynamic [19]: 499 µM (≈ 280 µg/mL) | half-life [20]: 24 min | bioavailability [21]: 22 to 40% | solubility thermodynamic [22]: 423 µM (≈ 237 µg/mL) | solubility thermodynamic [23]: 492 µM (≈ 276 µg/mL) | half-life [24]: 200 min | Tmax [25]: 30 min | hepatocyte CLint at 0.5 µM [26]: 9 µL/min/1e6 cells | fraction unbound at […] [27]: 0.09 | hepatocyte CLint at 0.5 µM [29]: 36 µL/min/1e6 cells | Tmax [31]: 30 min | Cp(f) [32]: < 1 nM
Compound: C=CC(=O)N1CCN(c2nc(=O)n(-c3c(C)ccnc3C(C)C)c3nc(-c4c(O)cccc4F)c(F)cc23)[C@@H](C)C1 [SOTORASIB]
TGI (MIA PaCa-2 [3]): 86% | inhibition (Mus musculus): Active | inhibition (INH) (MIA PaCa-2 [10]): 62% | inhibition (INH) (MIA PaCa-2 [28]): 34% | inhibition (MIA PaCa-2 [30]): Active
